Assay [1] addresses recombinant human baculovirus-expressed AXL (Homo sapiens (Human), UniProt P30530). Briefly: AXL Kinase Assay (HTRF KinEASE). The note with it: average of two or more determinations. It counts as biochemical. As to the method: The ability of compounds to inhibit the kinase activity of recombinant human baculovirus-expressed AXL was measured by homogeneous TRF (HTRF) using Cisbio's KinEASE™ assay system in white 384-well Optiplates. Assay buffer contained 1 mM DTT, 2 mM MnCl2, 2% DMSO, […] supplement enzymatic buffer, and 1× enzymatic buffer. A 2× concentration of tyrosine kinase (TK) substrate-biotin/ATP mixture made in assay buffer was added to plates at 10 μL/well using the Multidrop Combi (Thermo Fisher Scientific, Waltham, Mass.). […] Compounds (100 nL), diluted in 100% DMSO on the Biomek FX, (Beckman Coulter, Inc., Brea, Calif.), were transferred to the assay plates using the Biomek FX pintool (2.5% final DMSO in assay). […] Plates were sealed, briefly shaken and incubated at 25° C. for 30 minutes. […] Plates were sealed, briefly shaken and incubated at 25° C. for 1 hour.
Inhibition curves for compounds were generated by plotting percent control activity versus log 10 of the concentration of compound. IC50 values were calculated by nonlinear regression using the sigmoidal dose-response (variable slope) equation in GraphPad Prism as follows: y=bottom+(top−bottom)/(1+10(log IC50−x)*Hill Slope) where y is the % kinase activity at a given concentration of compound, x is the logarithm of the concentration of compound, bottom is the % of control kinase activity at the highest compound concentration tested, and top is the % of control kinase activity at the lowest compound concentration examined. The values for bottom and top were fixed at 0 and 100, respectively.
(In general: In TR-FRET formats the signal depends on donor and acceptor labels being close together.)

The target of assay [2] is recombinant human baculovirus-expressed cMET (Homo sapiens (Human), UniProt P08581). The experiment in a line: C-MET Kinase Assay (HTRF KinEASE). In kind it is biochemical. Particulars: average of two or more determinations; read-out: c-MET IC50. The method, boiled down:
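HTRF KinEASE format with recombinant human baculovirus-expressed cMET at 8 ng/mL, biotinylated peptide at 0.1 μM and ATP at 0.02 μM. IC50 came from percent control activity versus log concentration, fitted by nonlinear regression to a variable-slope sigmoidal equation with bottom fixed at 0 and top at 100.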

The structures appear in SMILES notation.

Among the data in patent US9745283B2, “Uracil derivatives as AXL and c-MET kinase inhibitors” (priority 2011, dated 2017) are IC50 values, retold here.

As usually defined, the IC50 is the point on the concentration scale where inhibition reaches its midpoint.

On to `COc1cc2nccc(Oc3ccc(NC(=O)c4c[nH]c(=O)n(-c5ccc(F)cc5)c4=O)cc3F)c2cc1OC` [Example 17, 3-(4-Fluorophenyl)-2,4-dioxo-1,2,3,4-tetrahydropyrimidine-5-carboxylic acid [4-(6,7-dimethoxyquinolin-4-yloxy)-3-fluorophenyl]-amide], for which the IC50 in assay [1] and in assay [2] was below 10 nM each time.

Take `COc1cc2nccc(Oc3ccc(NC(=O)c4cn(C)c(=O)n(-c5ccc(F)cc5)c4=O)cc3)c2cc1OC` [Example 18, 3-(4-Fluorophenyl)-1-methyl-2,4-dioxo-1,2,3,4-tetrahydropyrimidine-5-carboxylic acid [4-(6,7-dimethoxyquinolin-4-yloxy)-phenyl]-amide]: the IC50 in assay [1] was below 10 nM; in assay [2], 10 to 100 nM.

Take `COc1cc2nccc(Oc3ccc(NC(=O)c4cn(CCN(C)C)c(=O)n(-c5ccc(F)cc5)c4=O)cc3F)c2cc1OC` [Example 20, 1-(2-Dimethylaminoethyl)-3-(4-fluorophenyl)-2,4-dioxo-1,2,3,4-tetrahydropyrimidine-5-carboxylic acid [4-(6,7-dimethoxyquinolin-4-yloxy)-3-fluorophenyl]-amide]: the IC50 in assay [1] was below 10 nM; in assay [2], 10 to 100 nM.

For `COc1cc2nccc(Oc3ccc(NC(=O)c4cn(CCCOCc5ccccc5)c(=O)n(-c5ccc(F)cc5)c4=O)cc3)c2cc1OC` [Example 21, 1-(3-Benzyloxypropyl)-3-(4-fluorophenyl)-2,4-dioxo-1,2,3,4-tetrahydropyrimidine-5-carboxylic acid [4-(6,7-dimethoxyquinolin-4-yloxy)phenyl]-amide], the IC50 in assay [1] was below 10 nM; in assay [2], 10 to 100 nM.

Turning to `COc1cc2nccc(Oc3ccc(NC(=O)c4cn(CCCOCc5ccccc5)c(=O)n(-c5ccc(F)cc5)c4=O)c(F)c3)c2cc1OC` [Example 22, 1-(3-Benzyloxypropyl)-3-(4-fluorophenyl)-2,4-dioxo-1,2,3,4-tetrahydropyrimidine-5-carboxylic acid [4-(6,7-dimethoxyquinolin-4-yloxy)-2-fluorophenyl]-amide], the IC50 was below 10 nM in assay [1] and 10 to 100 nM in assay [2].

Consider `COc1cc2nccc(Oc3ccc(NC(=O)c4cn(C(C)C)c(=O)n(-c5ccc(F)cc5)c4=O)cc3)c2cc1OC` [Example 23, 3-(4-Fluorophenyl)-1-isopropyl-2,4-dioxo-1,2,3,4-tetrahydropyrimidine-5-carboxylic acid [4-(6,7-dimethoxyquinolin-4-yloxy)phenyl]-amide], for which the IC50 in assay [1] and in assay [2] was below 10 nM throughout.

Consider `COc1cc2nccc(Oc3ccc(NC(=O)c4c[nH]c(=O)n(-c5ccc(F)cc5)c4=O)cc3)c2cc1OC` [Example 24, 3-(4-Fluorophenyl)-2,4-dioxo-1,2,3,4-tetrahydropyrimidine-5-carboxylic acid [4-(6,7-dimethoxyquinolin-4-yloxy)phenyl]-amide], for which the half-maximal inhibitory concentration (IC50) in assay [1] and in assay [2] was below 10 nM in each case.

Consider `COc1cc2nccc(Oc3ccc(NC(=O)c4cn(CCN5CCCC5)c(=O)n(-c5ccc(F)cc5)c4=O)cc3F)c2cc1OC` [Example 26, 3-(4-Fluorophenyl)-2,4-dioxo-1-(2-pyrrolidin-1-yl-ethyl)-1,2,3,4-tetrahydropyrimidine-5-carboxylic acid [4-(6,7-dimethoxyquinolin-4-yloxy)-3-fluorophenyl]-amide], for which the results for the IC50 in assay [1] and in assay [2] were below 10 nM and 10 to 100 nM, respectively.

For the compound `COc1cc2nccc(Oc3ccc(NC(=O)c4cn(CCN5CCCCC5)c(=O)n(-c5ccc(F)cc5)c4=O)cc3F)c2cc1OC` [Example 27, 3-(4-Fluorophenyl)-2,4-dioxo-1-(2-piperidin-1-yl-ethyl)-1,2,3,4-tetrahydropyrimidine-5-carboxylic acid [4-(6,7-dimethoxyquinolin-4-yloxy)-3-fluorophenyl]-amide], the IC50 in assay [1] was below 10 nM; in assay [2] it was 10 to 100 nM.

For `CCn1cc(C(=O)Nc2ccc(Oc3ccnc4cc(OC)c(OC)cc34)cc2)c(=O)n(-c2ccc(F)cc2)c1=O` [Example 28, 1-Ethyl-3-(4-fluorophenyl)-2,4-dioxo-1,2,3,4-tetrahydropyrimidine-5-carboxylic acid [4-(6,7-dimethoxyquinolin-4-yloxy)-phenyl]-amide], the IC50 in assay [1] and in assay [2] was below 10 nM each time.

As to `COc1cc2nccc(Oc3ccc(NC(=O)c4cn(C5CCC5)c(=O)n(-c5ccc(F)cc5)c4=O)cc3F)c2cc1OC` [Example 29, 1-Cyclobutyl-3-(4-fluorophenyl)-2,4-dioxo-1,2,3,4-tetrahydropyrimidine-5-carboxylic acid [4-(6,7-dimethoxyquinolin-4-yloxy)-3-fluorophenyl]-amide], the IC50 in assay [1] is below 10 nM; in assay [2], 10 to 100 nM.

In the case of `COc1cc2nccc(Oc3ccc(NC(=O)c4cn(C5CCOCC5)c(=O)n(-c5ccc(F)cc5)c4=O)cc3F)c2cc1OC` [Example 30, 3-(4-Fluorophenyl)-2,4-dioxo-1-(tetrahydropyran-4-yl)-1,2,3,4-tetrahydropyrimidine-5-carboxylic acid [4-(6,7-dimethoxyquinolin-4-yloxy)-3-fluorophenyl]-amide], the IC50 in assay [1] is below 10 nM; in assay [2], 10 to 100 nM.

Regarding `CCn1cc(C(=O)Nc2ccc(Oc3ccnc4cc(OC)c(OC)cc34)cn2)c(=O)n(-c2ccc(F)cc2)c1=O` [Example 31, 1-Ethyl-3-(4-fluorophenyl)-2,4-dioxo-1,2,3,4-tetrahydropyrimidine-5-carboxylic acid [5-(6,7-dimethoxyquinolin-4-yloxy)-pyridin-2-yl]-amide], the values for the IC50 in assay [1] and in assay [2] were below 10 nM and 10 to 100 nM, respectively.

As to `CCn1c(C)c(C(=O)Nc2ccc(Oc3ccnc4cc(OC)c(OC)cc34)c(F)c2)c(=O)n(-c2ccc(F)cc2)c1=O` [Example 32, 1-Ethyl-3-(4-fluorophenyl)-6-methyl-2,4-dioxo-1,2,3,4-tetrahydropyrimidine-5-carboxylic acid [4-(6,7-dimethoxyquinolin-4-yloxy)-3-fluorophenyl]-amide], the IC50 in assay [1] and in assay [2] was below 10 nM in each case.

`CCOc1cc2nccc(Oc3ccc(NC(=O)c4cn(CC)c(=O)n(-c5ccc(F)cc5)c4=O)cc3F)c2cc1OCC` [Example 33, 1-Ethyl-3-(4-fluorophenyl)-2,4-dioxo-1,2,3,4-tetrahydropyrimidine-5-carboxylic acid [4-(6,7-diethoxyquinolin-4-yloxy)-3-fluorophenyl]-amide]: the IC50 is below 10 nM in assay [1] and 10 to 100 nM in assay [2].

Turning to `COc1cc2nccc(Oc3ccc(NC(=O)c4cn(C(C)C)c(=O)n(-c5ccc(F)cc5)c4=O)nc3)c2cc1OC` [Example 34, 3-(4-Fluorophenyl)-1-isopropyl-2,4-dioxo-1,2,3,4-tetrahydropyrimidine-5-carboxylic acid [5-(6,7-dimethoxyquinolin-4-yloxy)-pyridin-2-yl]-amide], the IC50 in assay [1] is below 10 nM; in assay [2], 10 to 100 nM.

Turning to `COc1cc2nccc(Oc3ccc(NC(=O)c4cn(CCO)c(=O)n(-c5ccc(F)cc5)c4=O)cc3F)c2cc1OC` [Example 49, 3-(4-Fluorophenyl)-1-(2-hydroxyethyl)-2,4-dioxo-1,2,3,4-tetrahydropyrimidine-5-carboxylic acid [4-(6,7-dimethoxyquinolin-4-yloxy)-3-fluorophenyl]-amide], the IC50 in assay [1] and in assay [2] was below 10 nM each time.
